Data set [1] concerns K. pneumoniae BAA-1706. In words: microbe, parasite or virus in culture. The format is cell-based. The settings on record: K. pneumoniae BAA-1706, no MDR factor. As for the experimental part: (§1) Bacterial strains were obtained from American Type Culture Collection. K. pneumoniae strains included BAA-1705 (blaKPC-2, hypermucoid), BAA-2146 (blaNDM-1), BAA-700603 (SHV-18, extended spectrum β-lactamase, ESBL), and BAA-1706 (non-CRE reference strain). E. coli strains included BAA-2340 (blaKPC-2), BAA-2471 (blaNDM-1), and ML35 (non-CRE reference strain).
(§2) Minimum inhibitory concentration (MIC) assays were performed ± 50% heat-inactivated mouse serum using Clinical and Laboratory Standards Institute (CLSI; document M07-A9) protocols. Bacteria (5 × 10^5 CFU/ml) were incubated with antibiotics or peptide for 20 h at 37 °C, and bacterial growth was determined by A620 using a SpectraMax M5e plate reader.

The subject of data set [2] is E. coli BAA-2471 (NDM-1). Description: microbe, parasite or virus in culture. The format is cell-based. Here is the method: as §1, §2
The test system of data set [3] is K. pneumoniae BAA-1705 (KPC-2). Description: microbe, parasite or virus in culture. The settings on record: 20 h, 37 °C. It counts as cell-based. As for the experimental part: as §1, §2
Data set [4] has as its system E. coli ML35. Description: microbe, parasite or virus in culture. The format is cell-based. The settings on record: E. coli ML35, no MDR factor. As for the experimental part: as §1, §2
In data set [5] the test system is E. coli BAA-2340 (KPC-2). Description: microbe, parasite or virus in culture. The format is cell-based. The settings on record: E. coli BAA-2340, KPC-2. Here is the method: as §1, §2
For data set [6], the system named is K. pneumoniae BAA-2146 (NDM-1). Description: microbe, parasite or virus in culture. The format is cell-based. As for the experimental part: as §1, §2
For data set [7], the system named is plasma cytokines. Description: Plasma multiplex cytokine analysis in Kp-1705 sepsis. The format is in vivo, BALB/c mice. The settings on record: 1.25 mg/kg i.p. 1 h p.i. As for the experimental part: EDTA-anticoagulated blood was collected aseptically by terminal cardiac puncture and analyzed for complete blood cell count using an Element HT5 hematology analyzer (Heska). Blood plasma and clarified peritoneal lavage were prepared by two-step centrifugation described previously. Plasma cytokine levels were quantified using a mouse-specific MILLIPLEX MAP kit (Millipore Cat# MCYTMAG-70K) as described.
Supplemental Table 1. Mice were challenged i.p. with Kp-1705 and treated 1 h later with MTD12813 (1.25 mg/kg i.p.) or saline. The sham cohort received bacteria-free suspension buffer at t=0 followed by saline 1 h later. Mice were euthanized 2, 4, or 24 h p.i., and plasma samples were subjected to multiplex cytokine analysis. P values calculated using ANOVA with Uncorrected Fisher’s LSD comparing saline and MTD12813 treated mice at respective time points.

Data set [8] is described as follows: Single dose pharmacokinetics (plasma and peritoneal fluid). The settings on record: both sexes, mouse, ip, 1.25 mg/kg single i.p., LC-MS/MS. The format is in vivo, BALB/c mice. As for the experimental part: Single dose PK of MTD12813 was evaluated by quantifying plasma peptide concentrations following 1.25 mg/kg injections administered i.p. to 2 M/2F BALB/c mice. EDTA plasma was prepared from blood collected aseptically by terminal cardiac puncture. MTD12813 plasma concentrations were determined by reverse-phase liquid chromatography (XBridge phenyl 3.5 µm column, Waters) on an Acquity H-Class UPLC (Waters) with tandem electrospray mass spectroscopy on a Xevo TQ-S running MassLynx V4.1 (Waters). Quantitative mass spectroscopy was performed by multiple-reaction monitoring transition 394.04 > 519.35, with area under the curve determined by TargetLynx (Waters).
Cryopreserved Kp-1705 was suspended in PBS to a density of ca. 1 × 10^9 CFU/ml, and incubated with saline or 1.25 µg/ml MTD12813 at room temperature for 1 h. […] In vitro antibacterial activity of MTD12813 (1.25 μg/ml) -treated cells (1 h; 37 °C) was determined by plating saline or peptide treated cells on TSA plates. Growth kinetics of saline and MTD12813-treated cells was determined by diluting samples from the 1 h incubation mixtures 1:40 into TSB and monitoring growth (620 nm) for 5.5 h at 37 °C. Antibacterial activity of MTD12813 in PF was determined by i.p. injection of naïve male BALB/c mice (n = 5 per group) with 1.25 mg/kg of MTD12813 or saline i.p. (10 ml/kg). […]

Data set [9] in a line: LPS neutralization, limulus amebocyte lysate assay. The format is biochemical. The settings on record: 0.5 EU/ml LPS, 0.078–5 μg/ml, 37 °C, 30 min; data not shown. Here is the method:
A limulus amebocyte lysate endotoxin detection assay (Pierce A39553) protocol was employed by preincubating 0.5 EU/ml of LPS with either MTD12813, RTD-1, or colistin (0.078–5 μg/ml) in H20 at 37 °C for 30 min followed by quantifying free LPS per manufacturer’s instructions. All samples were compared to a LPS standard curve to determine the degree of LPS neutralization.

[10] abbreviates: 50% heat inactivated mouse serum.
Where [11] appears, read: CLSI, 20 h, 37 °C, A620, no serum.

Values after ≈ are worked out from the molar mass of the structure shown. Where a SMILES comes first, the peptide text is derived from it. Bridges are numbered along the chain shown (N, C = ends).

The Tmax is the time from dosing to the highest level. As to `CC[C@H](C)[C@@H]1NC(=O)[C@@H]2CSSC[C@H](NC(=O)[C@H]([C@@H](C)CC)NC(=O)[C@@H]3CSSC[C@H](NC1=O)C(=O)N[C@@H](C(C)C)C(=O)NCC(=O)N[C@@H](CCCNC(=N)N)C(=O)NCC(=O)N3)C(=O)N[C@@H](C(C)C)C(=O)N[C@@H](CCCNC(=N)N)C(=O)N[C@@H](CCCNC(=N)N)C(=O)N[C@@H](CCCNC(=N)N)C(=O)N2` [MTD12813] (cyclo(CICVGRGCICVRRR); disulfide 1-10, 3-8), the MIC in data set [1] (setting [10]) was more than 100 µg/mL; in data set [1] (setting [11]), 3.13 µg/mL (≈ 1.99 µM); in [2] (setting [10]), 100 µg/mL (≈ 63.6 µM); in data set [2] (setting [11]), 3.13 µg/mL (≈ 1.99 µM); in [3] (CLSI M07-A9, 5 × 10^5 CFU/ml, A620, no serum), 6.25 µg/mL (≈ 3.98 µM); in data set [3] (in the presence of 50% heat inactivated mouse serum, A620), more than 100 µg/mL. Besides, the MIC in data set [4] (setting [10]) is more than 100 µg/mL; in [4] (setting [11]), 3.13 µg/mL (≈ 1.99 µM); in data set [5] (setting [10]) it was more than 100 µg/mL; in [5] (setting [11]) it was 6.25 µg/mL (≈ 3.98 µM); in [6] (setting [10]), more than 100 µg/mL; in data set [6] (setting [11]), 6.25 µg/mL (≈ 3.98 µM). Further, the “plasma CCL4 and CXCL2” value in [7] (2 h p.i.) is “statistically significant reductions”. In addition, the “plasma IL-9 and IL-15 levels” value in data set [7] (4 h p.i.) is listed as “significant increases”. For the same compound, in [7] (4 h p.i.), the “plasma TNF, IL-6 and CXCL1 (KC)” value is reported as “significantly reduced”. In addition, the “change of plasma TNF versus saline” value in [7] (24 h p.i.) is -89.8%. Further, the Cmax in data set [8] (naïve BALB/c mice (2M/2F per time point), EDTA plasma, read-out: peak plasma concentration (Cmax)) is 251 ± 79.8 ng/mL. Besides, the Tmax in [8] (naïve male and female BALB/c mice (2M/2F per time point), plasma) is 15 min. Moreover, the “LPS inhibition (neutralization)” value in data set [9] is “No LPS inhibition”.
